# Measured values published in patent US20050209169A1, “Use of boswellic acid and its derivatives for inhibiting normal and increased leucocytic elastase or plasmin activity” (Hermann P.T. Ammon, priority 1995, published 2005).
# pIC50, pKi: −log10 of the molar value.
# How the values were obtained:
# [1] = target: T1, human leucocytic elastase (Homo sapiens, UniProt P08246); assay: Human leucocytic elastase activity in vitro, photometric, MeO-Suc-Ala-Ala-Pro-Val-p-nitroanilide substrate; format: biochemical; settings: for remaining activity at 20 µM: 20 μM test compound, percentage of 100% controls, read-out: residual activity of human leucocytic elastase; for inhibitory effect on human leucocytic elastase: concentration of 20 μM each in the test, reference substances
# T1 construct: purchased Calbiochem
# T1 sequence (P08246 30-267): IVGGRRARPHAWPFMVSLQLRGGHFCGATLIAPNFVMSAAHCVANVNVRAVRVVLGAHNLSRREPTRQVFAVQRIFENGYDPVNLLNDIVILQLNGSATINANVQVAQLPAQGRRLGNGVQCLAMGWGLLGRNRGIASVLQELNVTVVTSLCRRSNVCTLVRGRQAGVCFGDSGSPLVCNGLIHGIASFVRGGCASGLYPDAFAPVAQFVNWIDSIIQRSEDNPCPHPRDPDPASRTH
# Source text: The effects which differing concentrations of acetyl-11-keto-β-boswellic acid (AKBA) had on the human leucocytic elastase in these three series of measurement are shown as percentage of 100% controls as mean values±S.D. of three independent measurements each.
# human plasmin = target: T2, human plasmin (Homo sapiens, UniProt P00747); assay: Plasmin activity in vitro, photometric, substrate D-Ile-Phe-Lys-pNA; format: biochemical; settings: for pIC50: human plasmin in vitro, FIG. 2, read-out: half-maximum inhibition constants (IC50) of plasmin activity; for inhibition of plasmin activity, summary in words: in vitro test system, concentrations reachable in human blood after oral olibanum or frankincense extracts
# T2 construct: purchased SIGMA
# Method: The activity of human plasmin (SIGMA) was determined photometrically in vitro with the substrate D-Ile-Phe-Lys-pNA (Cs-Szabo et al., Thrombosis Res. 1980, 20: 199-206). The plasmin activity is referred to as the release of p-nitronaniline per minute (nmole/min) from the substrate as mean values±S.D. of n=3 measurements each.
# chymotrypsin = chymotrypsin (Bos taurus, UniProt P00766); assay: Chymotrypsin activity in vitro, photometric, MeO-Suc-Ala-Ala-Pro-Phe-p-nitroanilide substrate
# human leucoytic elastase = target: T3, human leucoytic elastase (Homo sapiens, UniProt P08246); settings: literature, Ying et al. 1991, Biochem. J. 277: 521-526; read-out: Ki values, inhibition of human leucocytic elastase; cited from earlier work
# T3 sequence (P08246 30-267): T1 sequence (P08246 30-267)
# T2 sequence (P00747 581-810 limits assumed): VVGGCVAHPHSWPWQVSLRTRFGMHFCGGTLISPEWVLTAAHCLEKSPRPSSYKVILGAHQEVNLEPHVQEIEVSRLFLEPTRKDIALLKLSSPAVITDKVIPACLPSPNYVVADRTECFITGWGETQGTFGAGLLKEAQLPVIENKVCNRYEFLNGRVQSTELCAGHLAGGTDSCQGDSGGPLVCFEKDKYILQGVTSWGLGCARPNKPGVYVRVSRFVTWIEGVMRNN
# T2 sequence (P00747 97-580 partner limits assumed): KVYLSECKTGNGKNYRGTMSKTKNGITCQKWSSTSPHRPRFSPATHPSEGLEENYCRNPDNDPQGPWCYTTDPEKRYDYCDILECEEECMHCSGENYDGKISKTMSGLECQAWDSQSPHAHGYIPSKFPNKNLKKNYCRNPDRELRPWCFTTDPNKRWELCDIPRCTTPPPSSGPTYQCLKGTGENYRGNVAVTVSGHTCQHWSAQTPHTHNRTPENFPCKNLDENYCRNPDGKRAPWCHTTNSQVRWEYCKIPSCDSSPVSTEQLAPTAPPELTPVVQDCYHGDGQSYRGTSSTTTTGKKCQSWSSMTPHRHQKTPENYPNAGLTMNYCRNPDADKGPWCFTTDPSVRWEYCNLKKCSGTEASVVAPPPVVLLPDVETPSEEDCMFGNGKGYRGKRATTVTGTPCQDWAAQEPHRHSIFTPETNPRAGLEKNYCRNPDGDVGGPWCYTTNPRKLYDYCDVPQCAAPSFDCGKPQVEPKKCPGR
molecule,measurement,setting,value
"CC(=O)OC1CCC2(C)C(CCC3(C)C2C(=O)C=C2C4C(C)C(C)CCC4(C)CCC23C)C1(C)C(=O)O (stereo not drawn) [AKBA, acetyl-11-keto-β-boswellic acid]",remaining activity at 20 µM,[1],18%
same,pIC50,"[1]; substrate concentrations of 50, 100 and 150 μM, 10% DMSO, room temperature, read-out: IC50 values, inhibition of human leucocytic elastase",~4.77
same,pIC50,human plasmin,5.22 to 5.40
same,"inhibition of plasmin activity, summary in words",human plasmin,inhibited almost completely
same,"chymotrypsin activity, of the control activity",chymotrypsin; 50 μM test compound,89%
same,"chymotrypsin activity, of the control activity",chymotrypsin; 100 μM test compound,85%
CC(C)c1ccc2c(c1)c(SC(C)(C)C)c(CC(C)(C)C(=O)O)n2Cc1ccc(Cl)cc1 [MK886],inhibitory effect on human leucocytic elastase,[1],no inhibitory effect
CC(Cc1ccc(O)c(O)c1)C(C)Cc1ccc(O)c(O)c1 (stereo not drawn) [NDGA],inhibitory effect on human leucocytic elastase,[1],no inhibitory effect
CCCCC/C=C\C/C=C\C/C=C\C/C=C\CCCC(=O)O [arachidonic acid],inhibitory effect on human leucocytic elastase,[1],no inhibitory effect
C[C@]12CCC(=O)C=C1CC[C@@H]1[C@@H]2[C@@H](O)C[C@@]2(C)[C@H]1CC[C@]2(O)C(=O)CO [cortisol],inhibitory effect on human leucocytic elastase,[1],no inhibitory effect
CC1(C)[C@@H](O)CC[C@]2(C)[C@H]3C(=O)C=C4[C@@H]5C[C@@](C)(C(=O)O)CC[C@]5(C)CC[C@@]4(C)[C@]3(C)CC[C@@H]12 [glycerrhitinic acid],inhibitory effect on human leucocytic elastase,[1],no inhibitory effect
C[C@]12CC[C@H]3[C@@H](CCC4=CC(=O)CC[C@@]43C)[C@@H]1CC[C@@H]2O [testosterone],inhibitory effect on human leucocytic elastase,[1],no inhibitory effect
C[C@H]1[C@H](C)CC[C@]2(C(=O)O)CC[C@]3(C)C(=CC[C@@H]4[C@@]5(C)CC[C@H](O)C(C)(C)[C@@H]5CC[C@]43C)[C@H]12 [ursolic acid],remaining activity at 20 µM,[1],11%
same,pIC50,human plasmin,~4.82
same,"inhibition of plasmin activity, summary in words",human plasmin,substantially weaker
same,pKi,human leucoytic elastase,5.22 to 5.40
same,"chymotrypsin activity, of the control activity",chymotrypsin; 50 μM test compound,56%
same,"chymotrypsin activity, of the control activity",chymotrypsin; 100 μM test compound,30%
"C[C@H]1[C@H](C)CC[C@]2(C)CC[C@]3(C)C(=CC[C@@H]4[C@@]5(C)CC[C@@H](O)[C@](C)(C(=O)O)[C@@H]5CC[C@]43C)[C@H]12 [β-BA, β-boswellic acid]","inhibition of plasmin activity, summary in words",human plasmin,inhibited almost completely
amyrin,influence on plasmin activity,human plasmin; concentrations up to 50 μM (not shown),does not influence significantly
same,"inhibition of plasmin activity, summary in words",human plasmin,not effective at all
